From a melting point compilation (Tetko et al.) come the findings set out here.

For orientation: melting point means the temperature of the solid-liquid transition. On to `CS(=O)(=O)c1cccc(S(=O)(=O)Cl)c1`, for which the melting point fell in the range of 87 to 89 °C. For `CC12CCC(CC1=NNC(=O)CCl)C2(C)C` (centres undefined) the value was 185 to 187 °C; for `COc1cc(C(=O)O)cc(OC)c1OCC(N)=O`, 249 to 253 °C. In turn, `O=C(O)c1cc([N+](=O)[O-])cc(Cl)c1F` showed a melting point of 180 to 182 °C.

Molecule `CC(C)c1ccc(C=O)cc1[N+](=O)[O-]` displayed a melting point of 50 to 52 °C. The molecule `CN(C)C(=O)Cn1cc(Br)cn1` came in with a melting point of 163 to 165 °C. On to `CC(Cl)C(=O)Nc1ccc2c(c1)OCO2` (centres undefined), for which the melting point lay within 168 to 170 °C. With `CC1CC(C)CN(S(=O)(=O)c2ccc(S(=O)(=O)Cl)cc2)C1` (centres undefined), the melting point was 153 to 155 °C. Turning to `O=C1CC(c2cccc(F)c2)CN1` (centres undefined), the melting point is 77 to 79 °C. In turn, `Nc1ccc(NC(=O)NCC2CCCO2)cc1` (centres undefined) yielded a melting point of 141 to 143 °C. The molecule `Nc1cccc(-c2noc(C3CC3)n2)c1` had a melting point of 69 to 71 °C. In turn, `Cc1ccc(NS(=O)(=O)c2cc([N+](=O)[O-])ccc2NN)c(C)c1` returned a melting point of 165 to 167 °C. The molecule `COc1cc(OC)cc(C(=O)Nc2ccc(C(=O)O)c(O)c2)c1` returned a melting point of 219 to 221 °C. `NCc1ccc(OCC(N)=O)cc1`: the melting point was 106 to 108 °C. `Cc1cc(C)c(C(=O)O)c(N)c1` yielded a melting point of 103 to 105 °C. The molecule `CNC(c1ccc(Cl)cc1)c1cccnc1` (centres undefined) had a melting point of 44 to 46 °C. In turn, `CC1(c2ccccc2)CC(=O)NC(=O)C1` had a melting point of 150 to 152 °C.

Molecule `CCOC(=O)c1oc2c(c1C)C(=O)CCC2` returned a melting point of 104 to 106 °C. The molecule `COc1ccc(O)c(C(N)=O)c1` came in with a melting point of 151 to 153 °C.

Regarding `Cn1cc(C(=O)NC2CCNCC2)cn1`, the melting point is 204 to 206 °C. In turn, `O=C(c1ccc(Br)cc1)C1CCOCC1` yielded a melting point of 99 to 101 °C. Consider `O=C1C=CC(=O)N1CCc1ccccc1F`, for which the melting point was 106 to 108 °C. In turn, `O=C(O)CCc1ccc(F)cc1F` returned a melting point of 108 to 110 °C. `COC(=O)C1CCN(c2ccnc(C#N)c2)CC1` showed a melting point of 104 to 106 °C. Regarding `Cc1cnn(-c2ccc(S(N)(=O)=O)cc2F)c1`, the melting point lay within 189 to 191 °C.

The molecule `CCOc1ccc(Oc2ccccc2N)cc1` showed a melting point of 158 to 160 °C. As for `Cc1cc(C(=O)CCl)c(C)n1-c1nccs1`, the melting point was in the range of 85 to 95 °C. Molecule `O=C1OCCN1c1ccc([N+](=O)[O-])cc1` displayed a melting point of 154 to 156 °C. For the molecule `NC(=S)NCc1ccc(OC(F)(F)F)cc1`, the melting point fell in the range of 120 to 122 °C.

Molecule `Nc1nnc(-c2ccc(F)cc2F)o1` showed a melting point of 232 to 234 °C. `Cc1c(F)cc(C(=O)O)cc1S(=O)(=O)Cl` gave a melting point of 179 to 181 °C. Regarding `CC(C)(CC(=O)O)NC(=O)OC(C)(C)C`, the melting point is 89 to 91 °C. In the case of `COc1cc(CN)ccc1OC(C)(C)C` it was 52 to 54 °C; in that of `O=C1CCc2c(F)cc(F)cc21`, 95 to 97 °C. In the case of `O=C1CC(c2ccccc2)Nc2ccccc2N1` (centres undefined), the melting point is 162 to 164 °C.

On to `CC(C)(N)CCS(C)(=O)=O`, for which the melting point fell in the range of 41 to 43 °C. In the case of `CC1Cc2cc(S(=O)(=O)Cl)ccc2O1` (centres undefined), the melting point is 73 to 75 °C. In the case of `CCOc1cc(C=O)ccc1OCC(F)(F)F` it was 38 to 40 °C. Molecule `ClCc1cc2c(cc1Br)OCO2` displayed a melting point of 62 to 66 °C. `CC(=O)C(C#N)c1c(F)cccc1Cl` (centres undefined) returned a melting point of 100 to 102 °C. `c1ccc2oc(-c3ccncc3)cc2c1` returned a melting point of 73 to 75 °C. In turn, `OCc1ccc(Oc2ccc(Br)cc2)c(F)c1` yielded a melting point of 68 to 70 °C. `Cc1nccn1-c1ccc(CN)cn1` yielded a melting point of 45 to 47 °C. For `O=[N+]([O-])c1cc([N+](=O)[O-])c(Br)cc1F` the value was 92 to 94 °C. For `CCOC(=O)c1c[nH]n(CC(=O)O)c1=N`, the melting point fell in the range of 195 to 197 °C.

On to `Cc1nn(C)c(=O)c(C(=O)N2CSCC2C(=O)O)c1C` (centres undefined), for which the melting point was in the range of 209 to 211 °C. Molecule `CCOC(=O)C(NC(=O)C(C)C)C(=O)OCC` returned a melting point of 75 to 77 °C. For `CC(=O)Oc1ccc(-c2ccc(C(=O)O)cc2)cc1`, the melting point fell in the range of 275 to 277 °C. `Cc1nc2nc(N)nn2c(C)c1CC(=O)O` gave a melting point of 260 to 264 °C. In the case of `O=C(O)[C@@H]1CCCN1C(=O)Nc1ccc2c(c1)OCCO2` it was 176 to 178 °C; in that of `COc1ccc(CC(=O)O)cc1F`, 110 to 112 °C. With `O=C1CCN(C(=O)c2ccccc2Cl)CC1`, the melting point was in the range of 107 to 109 °C.

In the case of `CC(C)(C)OC(=O)NCCC1CNc2ccccc21` (centres undefined), the melting point lay in the range of 90 to 92 °C. Turning to `O=C(O)CCc1cncc(F)c1`, the melting point is 165 to 167 °C.

In turn, `NC(=S)CN1C(=O)CCC1=O` displayed a melting point of 156 to 158 °C. `Nc1cccc(S(=O)(=O)Nc2cccc(C(F)(F)F)c2)c1` displayed a melting point of 98 to 100 °C. For `COc1ccccc1CNC(=O)C(C)Cl` (centres undefined) the value was 113 to 115 °C; for `CC1(c2ccc(C(N)=O)cc2)NC(=O)NC1=O` (centres undefined), 163 to 165 °C; for `CN(C)S(=O)(=O)c1cc(NC(=O)CCl)ccc1Cl`, 183 to 185 °C. `O=C(O)c1cn(-c2ccccc2Cl)nn1`: the melting point was in the range of 133 to 135 °C.

Regarding `CS(=O)(=O)c1ccc(C(N)=NO)cc1`, the melting point fell in the range of 196 to 198 °C. As to `O=C(O)CCc1ccc2ccccc2c1`, the melting point lay in the range of 135 to 137 °C.

As to `O=C(O)CN1CCC(CO)CC1`, the melting point was 202 to 204 °C.

`CCOC(=O)c1sc(-c2ccc(Cl)cc2Cl)cc1N`: the melting point lay within 100 to 102 °C. Consider `c1cc2c(cn1)ncn2C1CC1`, for which the melting point fell in the range of 53 to 55 °C. For `O=C(O)C1CCCCN1S(=O)(=O)c1ccc([N+](=O)[O-])cc1` (centres undefined) the value was 161 to 163 °C. Molecule `NC(=O)c1cc(Cl)nnc1Cl` had a melting point of 176 to 178 °C. Molecule `N#Cc1cc2c([nH]c1=O)CCCC2` had a melting point of 246 to 248 °C. The molecule `COCc1nc(Cl)c2c(-c3ccccc3)csc2n1` had a melting point of 62 to 64 °C. `CCN(CC)S(=O)(=O)c1ccc(Oc2ccc(C=O)cc2OC)c([N+](=O)[O-])c1`: the melting point is 134 to 136 °C. For `Cc1ncc(C(=O)O)s1`, the melting point fell in the range of 209 to 211 °C. In the case of `Nc1ccccc1-c1ccc(-c2ccccc2)cc1`, the melting point lay within 163 to 165 °C. Molecule `CC(C)C(C#N)NC(=O)c1ccccc1` (centres undefined) showed a melting point of 106 to 108 °C.

As to `Cc1cc(Cl)ccc1OCc1n[nH]c(-c2ccccn2)n1`, the melting point lay within 174 to 176 °C. In the case of `CC(Cl)C(=O)N(CCC#N)c1ccccc1` (centres undefined) it was 74 to 76 °C; in that of `O=[N+]([O-])c1ccc(OCc2ccccc2)cc1`, 92 to 94 °C.

`CCCCc1ccc(N2CC(C(=O)O)CC2=O)cc1` (centres undefined) yielded a melting point of 139 to 141 °C. In the case of `Nc1nc(-c2ccccc2)c(-c2ccccc2)o1` it was 150 to 152 °C; in that of `O=C(O)CCSc1nc2ccccc2s1`, 149 to 151 °C.

On to `NC(=S)Nc1ccccc1OC(F)(F)F`, for which the melting point was 156 to 158 °C. As to `Clc1ncnc2ccc(I)cc12`, the melting point lay in the range of 173 to 175 °C. `COc1ccc(Br)cc1Cl` had a melting point of 69 to 71 °C. For `CS(=O)(=O)Nc1cc(F)ccc1C(=O)O` the value was 205 to 207 °C; for `COc1ccc(C(=O)/C=C2\NC(=O)CS2)cc1`, 210 to 212 °C.
